Series [1] can be described thus: In vitro cytotoxicity assay, HeLa cells (resazurin cell viability). Particulars: human. Format: cell-based. The protocol:
(§1) A single concentration (20 µM) cytotoxicity evaluation of all compounds was conducted in duplicates using a human cervix adenocarcinoma (HeLa) cell line, with emetine (EMT) included as a reference drug and cell viability relative to untreated cells assessed using resazurin. […] The anti-trypanosomal activity of prepared compounds against nagana T. b. brucei (the subspecies responsible for African trypanosomiasis in cattle) parasite cultures were determined using the T. b. brucei 427 strain. Pentamidine (PMD), which is an existing drug for the treatment of trypanosomiasis, was included as a positive control drug. The trypanocidal activity of each compound was initially assessed at a fixed concentration of 20 μM, using resazurin as a read-out of cell viability after compound exposure. […] From Table 1, the structural modification was initially performed on the arylpyrrole moiety (ring B) of the chalcones, while keeping the ring A unchanged. […] Introduction of the fluorine, highly electronegative atom, at the para-position (10b) appeared to enhance the activity against T. b. brucei; however, the activity diminished when the fluorine was replaced by chlorine (10c).
HeLa cells (Cellonex, Johannesburg, South Africa) seeded in 96-well plates were incubated with 20 µM test compounds and cell viability assessed with resazurin, as previously described. Fluorescence readings (excitation 560 nm, emission 590 nm) obtained for the individual wells were converted to % cell viability relative to the average readings obtained from untreated control wells. Plots of % cell viability vs. log[compound] were used to determine IC50 values by non-linear regression using GraphPad Prism (v. 5.02).
Background: The colour change of resazurin is a common sign of viable cells or microbes.

Series [2] concerns Trypanosoma brucei brucei 427 trypomastigotes. Put plainly: In vitro antitrypanosomal assay (resazurin parasite viability). Type of series: cell-based. Particulars: T. b. brucei 427 strain; for IC50: Trypanosoma brucei. Here is the method:
as §1
Trypanosoma brucei brucei 427 trypomastigotes were cultured in Iscove’s Modified Dulbecco’s medium (IMDM, Lonza, Basel Switzerland) and supplemented with 10% fetal calf serum, HMI-9 supplement, hypoxanthine and penicillin/streptomycin at 37 °C in a 5% CO2 incubator. Serial dilutions of test compounds were incubated with the parasites in 96-well plates for 24 h, and residual parasite viability in the wells determined by adding 20 µL resazurin toxicology reagent (Sigma-Aldrich) and incubating for an additional 24 h. Reduction of resazurin to resorufin by viable parasites was assessed by fluorescence readings (excitation 560 nm, emission 590 nm) in a Spectramax M3 plate reader (Molecular Devices, San Jose, CA, USA). Fluorescence readings were converted to % parasite viability relative to the average readings obtained from untreated control wells. IC50 values were determined by plotting % viability vs. log[compound] and performing non-linear regression using GraphPad Prism (v. 5.02) software.

The mark [3] stands for this setting: 48 h, 24 h compound incubation + 24 h resazurin, na = not active (cell viability ≥50% in preliminary single point assay at 20 μM), read-out: T. b. brucei IC50.
The mark [4] stands for this setting: 24 h compound incubation + 24 h resazurin, na = not active (cell viability ≥50% in preliminary single point assay at 20 μM).

These results are taken from paper PMC7181280, “Synthesis, Structure and In Vitro Anti-Trypanosomal Activity of Non-Toxic Arylpyrrole-Based Chalcone Derivatives” (Molecules, 2020).

Where two headings read alike, the source gives them in different places.

As a reminder, the melting point is the temperature of the solid-liquid transition. One may read the viability as a per cent measure of how many cells are alive, often set against a control.

On to `Cc1cc(/C=C/C(=O)c2ccc([N+](=O)[O-])cc2)c(C)n1-c1ccc([N+](=O)[O-])cc1` [Compound 17, (E)-3-(2,5-Dimethyl-1-(4-nitrophenyl)-1H-pyrrol-3-yl)-1-(4-nitrophenyl)prop-2-en-1-one], for which the melting point fell in the range of 175 to 178 °C. The viability at 20 µM in series [1] (single concentration 20 µM, duplicates, relative to untreated cells, read-out: HeLa %Viability (residual percentage viability)) was > 100%.
As for `Cc1cc(/C=C/C(=O)c2cc(Br)ccc2O)c(C)n1-c1ccc(Br)cc1` [Compound 10d, (E)-1-(5-Bromo-2-hydroxyphenyl)-3-(1-(4-bromophenyl)-2,5-dimethyl-1H-pyrrol-3-yl)prop-2-en-1-one], the IC50 in series [2] (setting [3]) worked out at 10.5 µM. Further, in series [1], the viability at 20 µM was > 100%.
As for `COc1ccc(-n2c(C)cc(/C=C/C(=O)c3cc(Br)ccc3O)c2C)cc1` [Compound 10j, (E)-1-(5-Bromo-2-hydroxyphenyl)-3-(1-(4-methoxyphenyl)-2,5-dimethyl-1H-pyrrol-3-yl)prop-2-en-1-one], the “T. b. brucei IC50” value in series [2] (setting [4]) is listed as “no activity”. Further, the viability at 20 µM in series [1] is > 100%.
For the molecule `Cc1cc(/C=C/C(=O)c2cc(Br)ccc2O)c(C)n1-c1ccc(F)cc1` [Compound 10b, (E)-1-(5-Bromo-2-hydroxyphenyl)-3-(1-(4-fluorophenyl)-2,5-dimethyl-1H-pyrrol-3-yl)prop-2-en-1-one], the IC50 in series [2] (setting [3]) worked out at 6.9 µM. In series [1], the viability at 20 µM was > 100%.
With `Cc1cc(/C=C/C(=O)c2cc(Br)ccc2O)c(C)n1-c1ccc(C(F)(F)F)cc1` [Compound 10f, (E)-1-(5-Bromo-2-hydroxyphenyl)-3-(2,5-dimethyl-1-(4-(trifluoromethyl)phenyl)-1H-pyrrol-3-yl)prop-2-en-1-one], the IC50 in series [2] (setting [3]) worked out at 11.4 µM. Also, in series [1], the viability at 20 µM is > 100%.
For `Cc1cc(/C=C/C(=O)c2cc(Br)ccc2O)c(C)n1-c1ccccc1` [Compound 10a, (E)-1-(5-Bromo-2-hydroxyphenyl)-3-(2,5-dimethyl-1-phenyl-1H-pyrrol-3-yl)prop-2-en-1-one] the same measures were 11.5 µM and > 100%.
Take `N=C(N)c1ccc(OCCCCCOc2ccc(C(=N)N)cc2)cc1` [PMD, Pentamidine, reference compound]: in series [2] (read-out: T. b. brucei IC50 (positive control drug)), the IC50 was 0.00068 µM.
`Cc1ccc(C(=O)/C=C/c2cc(C)n(-c3ccc([N+](=O)[O-])cc3)c2C)cc1` [Compound 13, (E)-3-(2,5-Dimethyl-1-(4-nitrophenyl)-1H-pyrrol-3-yl)-1-(p-tolyl)prop-2-en-1-one] showed a melting point of 172 to 173 °C. For the same molecule, in series [2] (setting [3]), the IC50 was found to be 44.3 µM. Also, in series [1], the viability at 20 µM was > 100%.
For `Cc1cc(/C=C/C(=O)c2ccc(F)cc2)c(C)n1-c1ccc([N+](=O)[O-])cc1` [Compound 14, (E)-3-(2,5-Dimethyl-1-(4-nitrophenyl)-1H-pyrrol-3-yl)-1-(4-fluorophenyl)prop-2-en-1-one] the same measures were 160 to 164 °C, 36.5 µM and 99.4%.
On to `O=C(/C=C/c1c[nH]cn1)c1cc(Br)ccc1O` [Compound 11a, (E)-1-(5-Bromo-2-hydroxyphenyl)-3-(1H-imidazol-4-yl)prop-2-en-1-one], for which the “T. b. brucei IC50” value in series [2] (setting [4]) is given as “no activity”. Besides, in series [1], the viability at 20 µM came to 78.1%.
For the molecule `Cc1cc(/C=C/C(=O)c2cc(Cl)ccc2O)c(C)n1-c1cccc(C(F)(F)F)c1` [Compound 18, (E)-1-(5-Chloro-2-hydroxyphenyl)-3-(2,5-dimethyl-1-(3-(trifluoromethyl)phenyl)-1H-pyrrol-3-yl)prop-2-en-1-one], in series [2] (setting [3]), the IC50 was determined as 9.3 µM. Besides, the viability at 20 µM in series [1] came out at 79.9%.
For `COc1ccc2nc(Cl)c(/C=C/C(=O)c3cc(Br)ccc3O)cc2c1` [Compound 11b], in that order: 9.1 µM and 99.3%.
On to `Cc1cc(/C=C/C(=O)c2cc(Br)ccc2O)c(C)n1-c1ccc([N+](=O)[O-])cc1` [Compound 10h, (E)-1-(5-Bromo-2-hydroxyphenyl)-3-(2,5-dimethyl-1-(4-nitrophenyl)-1H-pyrrol-3-yl)prop-2-en-1-one], for which the IC50 in series [2] (setting [3]) was < 6 µM. In addition, the viability at 20 µM in series [1] was > 100%.
On to `Cc1cc(/C=C/C(=O)c2cc(Br)ccc2O)c(C)n1-c1ccccc1C(F)(F)F` [Compound 10g, (E)-1-(5-Bromo-2-hydroxyphenyl)-3-(2,5-dimethyl-1-(2-(trifluoromethyl)phenyl)-1H-pyrrol-3-yl)prop-2-en-1-one], for which the IC50 in series [2] (setting [3]) stood at 10 µM. Besides, the viability at 20 µM in series [1] was > 100%.
Consider `Cc1cc(/C=C/C(=O)c2cc(Cl)ccc2O)c(C)n1-c1cccc([N+](=O)[O-])c1` [Compound 19, (E)-1-(5-Chloro-2-hydroxyphenyl)-3-(2,5-dimethyl-1-(3-nitrophenyl)-1H-pyrrol-3-yl)prop-2-en-1-one], for which the IC50 in series [2] (setting [3]) was 11.7 µM. Besides, the viability at 20 µM in series [1] is 81.2%.
For `Cc1cc(/C=C/C(=O)c2cc(Br)ccc2O)c(C)n1-c1ccc(Cl)cc1` [Compound 10c, (E)-1-(5-Bromo-2-hydroxyphenyl)-3-(1-(4-chlorophenyl)-2,5-dimethyl-1H-pyrrol-3-yl)prop-2-en-1-one], in that order: 40 µM and > 100%.
For `Cc1cc(/C=C/C(=O)c2cc(Br)ccc2O)c(C)n1C1CCCCC1` [Compound 10l, (E)-1-(5-Bromo-2-hydroxyphenyl)-3-(1-cyclohexyl-2,5-dimethyl-1H-pyrrol-3-yl)prop-2-en-1-one] the same measures were 11.5 µM and 99.2%.
For `Cc1cc(/C=C/C(=O)c2cc(Br)ccc2O)c(C)n1-c1cccc(C(F)(F)F)c1` [Compound 10e, (E)-1-(5-Bromo-2-hydroxyphenyl)-3-(2,5-dimethyl-1-(3-(trifluoromethyl)phenyl)-1H-pyrrol-3-yl)prop-2-en-1-one], the IC50 in series [2] (setting [3]) was 4.09 µM. Further, the viability at 20 µM in series [1] is > 100%.
As for `Cc1cc(/C=C/C(=O)c2ccccc2)c(C)n1-c1ccc([N+](=O)[O-])cc1` [Compound 12, (E)-3-(2,5-Dimethyl-1-(4-nitrophenyl)-1H-pyrrol-3-yl)-1-phenylprop-2-en-1-one], the melting point lay in the range of 169 to 174 °C. For the same molecule, the viability at 20 µM in series [1] amounted to 84.7%.
For `CC[C@H]1CN2CCc3cc(OC)c(OC)cc3[C@@H]2C[C@@H]1C[C@H]1NCCc2cc(OC)c(OC)cc21` [EMT, emetine, reference compound], the IC50 in series [1] (HeLa cells, resazurin, read-out: HeLa cytotoxicity of reference drug (printed in the %Viability column with unit μM)) turned out to be 0.76 µM.
`Cc1cc(/C=C/C(=O)c2cc(Br)ccc2O)c(C)n1-c1cccc([N+](=O)[O-])c1` [Compound 10i, (E)-1-(5-bromo-2-hydroxyphenyl)-3-(2,5-dimethyl-1-(3-nitrophenyl)-1H-pyrrol-3-yl)prop-2-en-1-one]: the IC50 in series [2] (setting [3]) is < 10 µM. The viability at 20 µM in series [1] was 51.2%.
For `COc1ccc(C(=O)/C=C/c2cc(C)n(-c3ccc([N+](=O)[O-])cc3)c2C)c(OC)c1` [Compound 16, (E)-1-(2,4-Dimethoxyphenyl)-3-(2,5-dimethyl-1-(4-nitrophenyl)-1H-pyrrol-3-yl)prop-2-en-1-one], in that order: 10.6 µM and > 100%.
Consider `Cc1cc(/C=C/C(=O)c2cc(Br)ccc2O)c(C)[nH]1` [Compound 10k, (E)-1-(5-Bromo-2-hydroxyphenyl)-3-(2,5-dimethyl-1H-pyrrol-3-yl)prop-2-en-1-one], for which the “T. b. brucei IC50” value in series [2] (setting [4]) is “complete loss of activity”. Moreover, the viability at 20 µM in series [1] is > 100%.
`COc1ccc(C(=O)/C=C/c2cc(C)n(-c3ccc([N+](=O)[O-])cc3)c2C)cc1` [Compound 15, (E)-3-(2,5-Dimethyl-1-(4-nitrophenyl)-1H-pyrrol-3-yl)-1-(4-methoxyphenyl)prop-2-en-1-one] showed a melting point of 157 to 158 °C. In addition, the IC50 in series [2] (setting [3]) came out at 12.3 µM. Besides, the viability at 20 µM in series [1] stood at 98.9%.
